# Key:
# [1] = test system: K562/R7 cells; experiment: Determination of IC50 for cytotoxics ([^3H]thymidine incorporation)
# Method: (§1) After treatment, the number of surviving cells was evaluated by the incorporation of [^3H]thymidine as described above.
# [2] = test system: H295R cells; experiment: cells
# Method: as §1
# [3] = test system: resistant R7 cells; experiment: Reversion of chemoresistance to doxorubicin by steroid modulators (modulation of IC50 for doxorubicin); assay type: cell-based, human; details: in vitro, cyclosporine A in the same conditions
# Method: FIGS. 3 and 4 represent the effects of compounds of the invention (steroid modulators) on chemosensitization of resistant R7 cells to doxorubicin (DOXO), evaluated by [^3H]thymidine incorporation. Resistant R7 cells were incubated for 24 hours with increasing concentrations of doxorubicinin the absence (∘) or in the presence of said steroid modulators. As a control, the sensitive K562 cells were incubated with the same concentrations of doxorubicin ([…]).
# Sensitive parental K562 cells were also treated with the same increasing concentrations of DOXO (from 10^−8 to 10^−4 M) in the absence of steroids, as a control.
# [4] = test system: K562/R7 cells; experiment: Cytotoxicity assay using MTT reagent, with doxorubicin plus steroid modulator; assay type: cell-based, human; details: doxorubicin 10^−6M + steroid modulator 10^−6M, 72 h
# Method: Doxorubicin at 10^−6 M was then added to each well. After incubation for 72 h, 20 μL of MTT reagent (5 mg/mL in PBS buffer) were added to each well and the plate was further incubated for 4 h at 37° C., allowing viable cells to change the yellow MTT into dark-blue formazan crystals. Supernatants were carefully discarded and 100 μL of isopropanol containing 10% HCL 1M were added to dissolve the formazan crystals. Absorbance in each well was determined at 570 nm using a microplate reader (MultisKan EX, Thermo Electron). […] At least three different experiments were performed. Results were expressed as the percentage of surviving cells in each well compared to untreated cells.
# [5] = test system: H295R cells; experiment: Cytotoxicity assay using [^3H]thymidine incorporation in surviving cells, with doxorubicin plus steroid modulator; assay type: cell-based, human; details: comment on Table 2, both value columns
# Method: Doxorubicine (DOXO) at 10^−6 M was added shortly thereafter to each well. […] Finally the precipitate was solubilized by addition of 300 μL of a solution of sodium deoxycholate (4% in NaOH 0.5 M) (O. Joly-Pharaboz et al., J Steroid Biochem. Mol. Biol. 73 (2000) 237-249). Radioactivity was measured (Tri-Carb 1900 CA, Packard) after addition of liquid scintillation cocktail (Perkin Elmer, Courtaboeuf, France). […] At least three different experiments were performed for each cell type.
# [6] = test system: R7 cells xenograft; experiment: In vivo efficiency in SCID mice xenografted with R7 cells
# Text: (§2) FIGS. 7 and 8 represent the tumour volume of mice treated with vehicle ([…]), doxorubicin (∘), compound (33) alone (▾), and compound (33) with doxorubicin (Δ). The tumor volume is indicated as a function of days. FIG. 7 concerns mice xenografted with H295R cells and FIG. 8 concerns mice xenografted with R7 cells (the arrow indicates the beginning of treatment of mice).
# (§3) For each xenograft, four groups of five mice developing a tumour in both flanks were employed. Group 1 received vehicle alone, group 2 received DOXO (1.5 mg/kg/mouse+vehicle), group 3 received (33) derivative (10 mg/kg/mouse solubilised with vehicle) and group 4 received DOXO+derivative.
# [7] = test system: H295R cells xenograft; experiment: In vivo efficiency in SCID mice xenografted with H295R cells
# Text: as §2, §3
# [8] = test system: R7 cells; experiment: Intracellular accumulation of daunorubicin measured by flow cytometry; assay type: cell-based, human; details: daunorubicin 10 μM, compound 10 μM, 1 h at 37° C.
# Method: The accumulation of daunorubicin in the presence of steroid modulators according to the invention, i.e. compounds having formula (I), was measured by flow cytometry using a reported procedure (G. Comte et al, J. Med. Chem., 44: 763-768, 2001). K562 or R7 cells ([…]) were incubated for 1 h at 37° C. with 1 mL RPMI 1640 medium containing daunorubicin at 10 μM, in the presence or absence of compounds of the invention (10 μM). The cells were then washed twice with ice-cold PBS and kept on ice until analysis by flow cytometry on a FACS-II (Becton-Dickinson Corp., Mountain View, Calif.). Assays were performed in duplicate, in at least three separate experiments.
# [9] = DOXO 1.5 mg/kg/mouse + derivative 10 mg/kg/mouse (group 4) versus groups 1, 2 and 3
# [10] = DOXO + derivative (group 4), 40 days of treatment
smiles,measurement,setting,value
O=C1c2c(O)ccc(O)c2C(=O)c2c(NCCNCCO)ccc(NCCNCCO)c21 [mitoxantrone],resistance of the cells to the cytotoxic drug (in words),[1],resistant
same,resistance of the cells to the cytotoxic drug (in words),[2],resistant
CC[C@]1(O)C[C@@H]2CN(CCc3c([nH]c4ccccc34)[C@@](C(=O)OC)(c3cc4c(cc3OC)N(C)[C@H]3[C@@](O)(C(=O)OC)[C@H](OC(C)=O)[C@]5(CC)C=CCN6CC[C@]43[C@@H]65)C2)C1 [vinblastine],resistance of the cells to the cytotoxic drug (in words),[1],resistant
CCC1=C[C@@H]2CN(C1)Cc1c([nH]c3ccccc13)[C@@](C(=O)OC)(c1cc3c(cc1OC)N(C)[C@H]1[C@@](O)(C(=O)OC)[C@H](OC(C)=O)[C@]4(CC)C=CCN5CC[C@]31[C@@H]54)C2 [vinorelbine],resistance of the cells to the cytotoxic drug (in words),[2],resistant
COc1cccc2c1C(=O)c1c(O)c3c(c(O)c1C2=O)C[C@@](O)(C(=O)CO)C[C@@H]3O[C@H]1C[C@H](N)[C@H](O)[C@H](C)O1 [doxorubicin],IC50,"[1]; Homo sapiens, K562/R7, 24 h, read-out: IC50 of cytotoxic drug (concentration inhibiting cell growth by 50%)",63.6 µM
same,IC50,"[2]; Homo sapiens, NCI-H295R, 24 h, read-out: IC50 of cytotoxic drug (concentration inhibiting cell growth by 50%)",20.6 µM
"CC(=O)C1CCC2C3C([C@H](OC4CCCCO4)C[C@]12C)[C@@]1(C)CCC(=O)C[C@H]1C[C@H]3OC(=O)c1ccccc1 (stereo partly drawn) [Compound 33, 7α-Benzoyloxy-11α-O-[2′(R)]tetrahydropyranyl-oxy(5β)pregnane-3,20-dione]",potency relative to cyclosporine A in decreasing IC50 for doxorubicin,[3],10 fold
same,Surviving cells R7 cells (% untreated cells),[4],1.5 ± 0.9 % untreated cells
same,activity to increase the cytotoxicity of doxorubicin (in words),[5],activity similar to cyclosporine A
same,development of tumour,[6]; [9],delay in the development of tumour
same,survival time,[6]; DOXO + derivative (group 4),longer survival time
same,tumour volume,[6]; [10],remains low and stable
same,development of tumour,[7]; [9],delay in the development of tumour
same,survival time,[7]; DOXO + derivative (group 4),longer survival time
same,tumour volume,[7]; [10],remains low and stable
"CC(=O)[C@@]1(OC2CCCCO2)CCC2C3CC[C@@H]4CC(=O)CC[C@]4(C)C3[C@H](OC3CCCCO3)C[C@@]21C (stereo partly drawn) [Compound 51, 11α,17α-Bis-O-[2′(S),2′(R)]tetrahydropyranyloxy(5β)pregnane-3,20-dione]",potency relative to cyclosporine A in decreasing IC50 for doxorubicin,[3],10 fold
same,Daunorubicin accumulation,[8],68.02 ± 15.6 % of the accumulation measured in the presence of cyclosporine A
